Assay results as given in ChEMBL document CHEMBL1201862, “PubChem BioAssay data set” (2004).
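Exposure lasted 48 hours, with cells grown in 96-well plates and compounds tested at five concentrations. The concentration for 50% growth inhibition is given as GI50.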 The source made the active and inactive calls. No stated cut-off is given here; in the data, active = GI50 up to about 1.1 µM and inactive = higher.

Assays:
Assay in all cases: inhibition of tumour cell growth, NCI panel, 48 h
NCI-H522 = tested on: NCI-H522
Malme-3M = tested on: Malme-3M
UO-31 = tested on: UO-31
SF-539 = tested on: SF-539
UACC-62 = tested on: UACC-62
SK-MEL-2 = tested on: SK-MEL-2
IGROV-1 = tested on: IGROV-1
SF-268 = tested on: SF-268
PC-3 = tested on: PC-3
SW-620 = tested on: SW-620
MCF7 = tested on: MCF7
U-251 = tested on: U-251
OVCAR-4 = tested on: OVCAR-4
MDA-N = tested on: MDA-N
HT-29 = tested on: HT-29
T47D = tested on: T47D
NCI-H226 = tested on: NCI-H226
NCI-H460 = tested on: NCI-H460
A549 = tested on: A549
HCT-116 = tested on: HCT-116
SNB-19 = tested on: SNB-19
LOX IMVI = tested on: LOX IMVI
Hs-578T = tested on: Hs-578T
RPMI-8226 = tested on: RPMI-8226
OVCAR-3 = tested on: OVCAR-3
SK-MEL-28 = tested on: SK-MEL-28
SF-295 = tested on: SF-295
TK-10 = tested on: TK-10
HOP-92 = tested on: HOP-92
HOP-62 = tested on: HOP-62
CAKI-1 = tested on: CAKI-1
OVCAR-5 = tested on: OVCAR-5
EKVX = tested on: EKVX
NCI-H23 = tested on: NCI-H23
A498 = tested on: A498
RXF 393 = tested on: RXF 393
SK-OV-3 = tested on: SK-OV-3
MDA-MB-231 = tested on: MDA-MB-231
OVCAR-8 = tested on: OVCAR-8
HCC 2998 = tested on: HCC 2998
DU-145 = tested on: DU-145
HL-60 = tested on: HL-60
BT-549 = tested on: BT-549
HCT-15 = tested on: HCT-15
UACC-257 = tested on: UACC-257
M14 = tested on: M14
SN12C = tested on: SN12C
786-0 = tested on: 786-0
MDA-MB-435 = tested on: MDA-MB-435
NCI/ADR-RES = tested on: NCI/ADR-RES
MOLT-4 = tested on: MOLT-4
COLO 205 = tested on: COLO 205
ACHN = tested on: ACHN
SR = tested on: SR
SNB-75 = tested on: SNB-75
KM12 = tested on: KM12
SK-MEL-5 = tested on: SK-MEL-5
K562 = tested on: K562
CCRF-CEM = tested on: CCRF-CEM

c1ccc2c(c1)nc1n2CNCC1
GI50 (NCI-H522): 43.1 µM (inactive) | GI50 (Malme-3M): 63.7 µM (inactive) | GI50 (UO-31): 79.3 µM (inactive) | GI50 (SF-539): > 100 µM (inactive) | GI50 (UACC-62): > 100 µM (inactive) | GI50 (SK-MEL-2): > 100 µM (inactive) | GI50 (IGROV-1): 94 µM (inactive) | GI50 (SF-268): > 100 µM (inactive) | GI50 (PC-3): > 100 µM (inactive) | GI50 (SW-620): 34.7 µM (inactive) | GI50 (MCF7): 45.7 µM (inactive) | GI50 (U-251): > 100 µM (inactive) | GI50 (OVCAR-4): > 100 µM (inactive) | GI50 (MDA-N): > 100 µM (inactive) | GI50 (HT-29): 42.2 µM (inactive) | GI50 (T47D): 37.2 µM (inactive) | GI50 (NCI-H226): > 100 µM (inactive) | GI50 (NCI-H460): > 100 µM (inactive) | GI50 (A549): > 100 µM (inactive) | GI50 (HCT-116): 43.2 µM (inactive) | GI50 (SNB-19): > 100 µM (inactive) | GI50 (LOX IMVI): 24.2 µM (inactive) | GI50 (Hs-578T): > 100 µM (inactive) | GI50 (RPMI-8226): 26.4 µM (inactive) | GI50 (OVCAR-3): > 100 µM (inactive) | GI50 (SK-MEL-28): 48.3 µM (inactive) | GI50 (SF-295): > 100 µM (inactive) | GI50 (TK-10): > 100 µM (inactive) | GI50 (HOP-92): > 100 µM (inactive) | GI50 (HOP-62): > 100 µM (inactive) | GI50 (CAKI-1): 49 µM (inactive) | GI50 (OVCAR-5): > 100 µM (inactive) | GI50 (EKVX): > 100 µM (inactive) | GI50 (NCI-H23): > 100 µM (inactive) | GI50 (A498): > 100 µM (inactive) | GI50 (RXF 393): 90.8 µM (inactive) | GI50 (SK-OV-3): > 100 µM (inactive) | GI50 (MDA-MB-231): > 100 µM (inactive) | GI50 (OVCAR-8): 58.5 µM (inactive) | GI50 (HCC 2998): > 100 µM (inactive) | GI50 (DU-145): 43.3 µM (inactive) | GI50 (HL-60): 68.5 µM (inactive) | GI50 (BT-549): > 100 µM (inactive) | GI50 (HCT-15): 50.2 µM | GI50 (UACC-257): > 100 µM (inactive) | GI50 (M14): > 100 µM (inactive) | GI50 (SN12C): > 100 µM (inactive) | GI50 (786-0): > 100 µM (inactive) | GI50 (MDA-MB-435): > 100 µM (inactive) | GI50 (NCI/ADR-RES): > 100 µM (inactive) | GI50 (MOLT-4): 43.3 µM (inactive) | GI50 (COLO 205): > 100 µM (inactive) | GI50 (ACHN): > 100 µM (inactive) | GI50 (SR): 29.7 µM (inactive) | GI50 (SNB-75): 90.8 µM (inactive) | GI50 (KM12): > 100 µM (inactive) | GI50 (SK-MEL-5): > 100 µM (inactive)

c1ccc(COC2C3COC(O3)C(OCc3ccccc3)C2OCc2ccccc2)cc1 (stereo not given)
GI50 (NCI-H522): 15.1 µM (inactive) | GI50 (UO-31): 56.2 µM (inactive) | GI50 (SF-539): > 100 µM (inactive) | GI50 (UACC-62): > 100 µM (inactive) | GI50 (SK-MEL-2): 54.3 µM (inactive) | GI50 (IGROV-1): 79.1 µM (inactive) | GI50 (SF-268): > 100 µM (inactive) | GI50 (PC-3): 35.2 µM (inactive) | GI50 (SW-620): 40.1 µM (inactive) | GI50 (MCF7): 39.1 µM (inactive) | GI50 (U-251): > 100 µM (inactive) | GI50 (K562): 27.9 µM (inactive) | GI50 (OVCAR-4): 49.1 µM (inactive) | GI50 (MDA-N): 63.7 µM (inactive) | GI50 (T47D): 22.9 µM (inactive) | GI50 (NCI-H226): 60.7 µM (inactive) | GI50 (NCI-H460): 22 µM (inactive) | GI50 (HCT-116): 33.9 µM (inactive) | GI50 (SNB-19): 27.3 µM (inactive) | GI50 (LOX IMVI): 30.6 µM (inactive) | GI50 (Hs-578T): 31.4 µM (inactive) | GI50 (RPMI-8226): 12.2 µM (inactive) | GI50 (OVCAR-3): 57.8 µM (inactive) | GI50 (SF-295): 94.4 µM (inactive) | GI50 (TK-10): 70.5 µM (inactive) | GI50 (HOP-92): 67.1 µM (inactive) | GI50 (CCRF-CEM): 11.2 µM (inactive) | GI50 (HOP-62): 71.3 µM (inactive) | GI50 (CAKI-1): > 100 µM (inactive) | GI50 (OVCAR-5): 69.5 µM (inactive) | GI50 (EKVX): 38.7 µM (inactive) | GI50 (NCI-H23): 77.3 µM (inactive) | GI50 (A498): > 100 µM (inactive) | GI50 (RXF 393): 45.4 µM (inactive) | GI50 (SK-OV-3): > 100 µM (inactive) | GI50 (MDA-MB-231): > 100 µM (inactive) | GI50 (OVCAR-8): 60.7 µM (inactive) | GI50 (HCC 2998): 14.6 µM (inactive) | GI50 (DU-145): 78.5 µM (inactive) | GI50 (HL-60): 13.2 µM (inactive) | GI50 (BT-549): > 100 µM (inactive) | GI50 (HCT-15): 34 µM | GI50 (UACC-257): 71.1 µM (inactive) | GI50 (M14): 32.2 µM (inactive) | GI50 (SN12C): 13.6 µM (inactive) | GI50 (786-0): 64.4 µM (inactive) | GI50 (MDA-MB-435): 18.2 µM (inactive) | GI50 (NCI/ADR-RES): 32.1 µM (inactive) | GI50 (MOLT-4): 6.75 µM (inactive) | GI50 (COLO 205): 41 µM (inactive) | GI50 (ACHN): 27.5 µM (inactive) | GI50 (SR): 4.84 µM (inactive) | GI50 (SNB-75): 22.8 µM (inactive) | GI50 (KM12): 29.6 µM (inactive) | GI50 (SK-MEL-5): 34.4 µM (inactive)

COc1ccc(C(Nc2ncccn2)c2cc3c(cc2O)OCO3)cc1 (stereo not given)
GI50 (NCI-H522): 16.7 µM (inactive) | GI50 (Malme-3M): 26.1 µM (inactive) | GI50 (UO-31): 17.1 µM (inactive) | GI50 (SF-539): 15.2 µM (inactive) | GI50 (UACC-62): 32.4 µM (inactive) | GI50 (SK-MEL-2): 20.7 µM (inactive) | GI50 (IGROV-1): 23 µM (inactive) | GI50 (SF-268): 17.3 µM (inactive) | GI50 (PC-3): 19.5 µM (inactive) | GI50 (SW-620): 9.42 µM (inactive) | GI50 (MCF7): 23.5 µM (inactive) | GI50 (U-251): 15.4 µM (inactive) | GI50 (K562): 23.1 µM (inactive) | GI50 (OVCAR-4): 42.8 µM (inactive) | GI50 (MDA-N): 18.3 µM (inactive) | GI50 (HT-29): 24.8 µM (inactive) | GI50 (T47D): 13.3 µM (inactive) | GI50 (NCI-H226): 21.7 µM (inactive) | GI50 (NCI-H460): 20.1 µM (inactive) | GI50 (A549): 32.2 µM (inactive) | GI50 (HCT-116): 29.4 µM (inactive) | GI50 (SNB-19): 17.3 µM (inactive) | GI50 (LOX IMVI): 16.9 µM (inactive) | GI50 (Hs-578T): 23.4 µM (inactive) | GI50 (RPMI-8226): 22.8 µM (inactive) | GI50 (OVCAR-3): 17.3 µM (inactive) | GI50 (SK-MEL-28): 22.3 µM (inactive) | GI50 (SF-295): 65.8 µM (inactive) | GI50 (TK-10): 18.6 µM (inactive) | GI50 (HOP-92): 37.2 µM (inactive) | GI50 (HOP-62): 22.4 µM (inactive) | GI50 (CAKI-1): 20.3 µM (inactive) | GI50 (OVCAR-5): 31.8 µM (inactive) | GI50 (EKVX): 22.9 µM (inactive) | GI50 (NCI-H23): 12.7 µM (inactive) | GI50 (A498): 46.5 µM (inactive) | GI50 (RXF 393): 17.9 µM (inactive) | GI50 (SK-OV-3): 22.1 µM (inactive) | GI50 (MDA-MB-231): 21.3 µM (inactive) | GI50 (OVCAR-8): 19.2 µM (inactive) | GI50 (HCC 2998): 21.7 µM (inactive) | GI50 (DU-145): 20.5 µM (inactive) | GI50 (HL-60): 16.4 µM (inactive) | GI50 (BT-549): 23 µM (inactive) | GI50 (HCT-15): 18.8 µM | GI50 (UACC-257): 18.9 µM (inactive) | GI50 (M14): 20.6 µM (inactive) | GI50 (SN12C): 17.4 µM (inactive) | GI50 (786-0): 18 µM (inactive) | GI50 (MDA-MB-435): 19.9 µM (inactive) | GI50 (NCI/ADR-RES): 30.8 µM (inactive) | GI50 (MOLT-4): 26.3 µM (inactive) | GI50 (COLO 205): 26.6 µM (inactive) | GI50 (ACHN): 41.8 µM (inactive) | GI50 (SR): 7.14 µM (inactive) | GI50 (SNB-75): 10.2 µM (inactive) | GI50 (KM12): 17.9 µM (inactive) | GI50 (SK-MEL-5): 20.4 µM (inactive)
